Assay results published in PubChem BioAssay (NCI).
Several values for one entry are separate records, joined by “and”; a condition that tells them apart may be missing. Equal values may be shown once.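 Exposure lasted 48 hours, with cells grown in 96-well plates and compounds tested at five concentrations. Here, GI50 denotes the concentration required for 50% inhibition of growth. TGI denotes the concentration required for complete inhibition of growth.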

Assays:
Assay in all cases: growth of human tumour cells (NCI), 48 h
[1] = system: A498 renal
[2] = system: CAKI-1 renal
[3] = system: T-47D breast
[4] = system: UO-31 renal
[5] = system: HOP-62 NSCLC
[6] = system: NCI-H460 lung
[7] = system: CCRF-CEM leukemia
[8] = system: IGROV1 ovarian
[9] = system: LOX IMVI melanoma
[10] = system: OVCAR-3 ovarian

SMILES	TGI [1]	TGI [2] [µM]	TGI [3] [µM]	TGI [4]	TGI [5]	TGI [6]	TGI [7] [µM]	TGI [8]	GI50 [1]	TGI [9]	GI50 [2] [µM]	GI50 [4]	GI50 [5]	GI50 [6]	GI50 [8] [µM]	GI50 [10]	TGI [10]	GI50 [9] [µM]	GI50 [3] [µM]	GI50 [7] [µM]
O=C(CCl)N1CCN(c2ccccn2)CC1	31.4 µM	33.5	31.7	36.3 µM	46.2 µM	41.2 µM	69.2	45.7 µM												
CC[C@@]1(O)C(=O)OCc2c1cc1n(c2=O)Cc2cc3cc(O)ccc3nc2-1	0.703 µM and 0.453 µM		> 100	0.204 µM and 0.135 µM	0.0319 µM and 0.153 µM	0.112 µM and 1.07 µM		22.8 µM and 2.67 µM	0.195 µM and 0.0455 µM	1.17 µM and 0.224 µM	0.042	0.0311 µM and 0.0195 µM	< 0.0075 µM	0.0172 µM and < 0.0104 µM	0.238	0.069 µM and 0.0368 µM	0.301 µM and 0.228 µM			
CCCCCCCCCCCCCCCC(=O)OCC1OC(OCCCC)[C@H](O[C@@H]2OC(C)C(OC(=O)CCC)C(O)C2O)C(O)C1O (some centres undefined)		26.2	40	> 100 µM	30.8 µM	57.8 µM	35	> 100 µM		44 µM	12.9	28.3 µM	16.8 µM	22.4 µM	23.1	13.4 µM	29.6 µM	20	18.7	17.2
COc1cccc(N2C(=N)/C(=C3\Nc4ccccc4S3)CC2=O)c1	80 µM	> 100	> 100	> 100 µM	28.1 µM	26.3 µM	> 100	> 100 µM	2.02 µM	> 100 µM	8.21	4.1 µM	2.73 µM	2.89 µM	7.58	14.8 µM	> 100 µM	3.21	18.9	1.91
CCN(CC)CCN1C(=O)c2c(c3c4cccc(Cl)c4n(C4OC(CO)C(OC)C(O)C4O)c3c3[nH]c4c(Cl)cccc4c23)C1=O (centres undefined)			2.26										0.000125 µM and < 0.0318 µM and < 0.01 µM	< 0.0001 µM				< 0.0001		< 0.0001
C/C=C(/C)C(=O)OC1C=C(CO)C(=O)C(OC(=O)C2(C)OC2C)C1C(C)C (centres undefined)	3.9 µM	3.2	2.79	2.96 µM	4.3 µM	8.27 µM	5.25	4.55 µM	1.74 µM	3.3 µM	1.81	1.61 µM	1.96 µM	2.93 µM	1.99	1.17 µM	2.45 µM	1.71	1.27	0.653
COc1cc(C2C=C(C)N=C3SC=C(C)N32)cc(OC)c1OC (centres undefined)	5.64 µM		7.27	2.47 µM	4.53 µM	7.33 µM	> 100	7.3 µM	2.39 µM	1.73 µM		1.13 µM	2.08 µM	2.11 µM	2.22	0.781 µM	7.66 µM	0.379	1.91	0.312
CN1CCC(=C(c2ccc(Cl)cc2)c2ccccn2)CC1	> 100 µM	> 100	> 100	> 100 µM	> 100 µM	> 100 µM	> 100	> 100 µM	45.8 µM	> 100 µM	> 100	18.5 µM	> 100 µM	> 100 µM	78.7	> 100 µM	> 100 µM	56.7	> 100	4.37
N#Cc1c(-c2ccccc2)nc(SCC(O)CN2CCOCC2)nc1N1CCOCC1 (centres undefined)	23 µM		6.03	> 100 µM	> 100 µM	> 100 µM	> 100		2.43 µM	> 100 µM	1.67	1.54 µM	29 µM	7.03 µM		15.4 µM	> 100 µM	17.6	1.33	88
CN(C)C/C=C/C(=O)Nc1ccc(C(=O)Nc2cccc(Nc3ncc(Cl)c(-c4c[nH]c5ccccc45)n3)c2)cc1	0.119 µM	0.686	> 100	0.666 µM	> 100 µM	0.904 µM	> 100		0.0189 µM	0.0856 µM	0.0607	0.199 µM	0.0697 µM	0.265 µM	0.0251	< 0.0122 µM	0.0903 µM	0.0133	0.0284	< 0.01
Cc1cc2c3c(nc4ccccc42)C(=O)c2cccnc2-c3n1	4.12 µM	2.67	4.13		2.23 µM	1.06 µM	1.4	0.383 µM	0.966 µM	0.524 µM	0.404		0.316 µM	0.162 µM	0.0658		0.0263 µM	0.144	0.749	0.171
N#C/C(=C\c1ccc(O)c(O)c1)C(=O)NCc1cccc(C(F)(F)F)c1	26.9 µM	7.39	84.5	73.9 µM	42.2 µM	31 µM			10.4 µM	26.4 µM	2.05	11.8 µM	13.4 µM	6.14 µM				11.4	13.3	
Oc1ccc(/C=N/NC(=S)Nc2ccccc2)nc1	> 100 µM	> 100	> 100	16.8 µM	7.29 µM	> 100 µM	> 100	> 100 µM	3 µM	16.6 µM	0.667	0.661 µM	0.766 µM	2.77 µM	3.68	0.405 µM	> 100 µM	0.464	1.54	0.938
COc1ccc(/C=C/C(=O)C(=O)/C=C/c2ccc(OC)c(OC)c2)cc1OC	19.9 µM	> 100	> 100	3.41 µM	> 100 µM	11.2 µM	20		2.26 µM	3.21 µM	3.17	1.63 µM	6.8 µM	3.06 µM		2.84 µM	9.9 µM	1.46	2.26	2.22
